For one series, the target named is T1, Carboxypeptidase A1 (Homo sapiens, UniProt P15085).
T1 sequence (P15085 whole entry): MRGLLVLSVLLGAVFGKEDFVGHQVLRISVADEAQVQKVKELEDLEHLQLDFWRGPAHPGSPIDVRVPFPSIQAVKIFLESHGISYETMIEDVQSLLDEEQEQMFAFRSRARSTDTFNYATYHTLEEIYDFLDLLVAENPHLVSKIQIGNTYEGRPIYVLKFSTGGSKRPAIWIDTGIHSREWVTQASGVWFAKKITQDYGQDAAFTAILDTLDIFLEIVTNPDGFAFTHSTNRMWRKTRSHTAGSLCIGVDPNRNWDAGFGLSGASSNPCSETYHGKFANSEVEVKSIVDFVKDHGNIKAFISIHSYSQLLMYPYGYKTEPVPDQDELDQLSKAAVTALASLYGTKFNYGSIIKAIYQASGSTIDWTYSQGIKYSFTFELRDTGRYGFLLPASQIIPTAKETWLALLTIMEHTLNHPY
Kind of series: Inhibition of Carboxypeptidase A assessed as amount of Cl-CPL consumed by UV spectrometer.

The nature of series [1]: Dissociation constant, pKa of the compound. The format is physicochemical.

SMILES strings stand for the structures.

On to `O=C(CBr)CC(Cc1ccccc1)C(=O)O` (racemic), for which, on Carboxypeptidase A1, the Ki came to 15 µM.
As to `O=C(O)C[N+](=O)[O-]` [NITROACETIC ACID], in series [1], the pKa was determined as 1.68.
`CC(=O)CC(Cc1ccccc1)C(=O)O` (racemic): on Carboxypeptidase A1, the inhibition constant (Ki) stood at 207 µM.
The same measure, in the same setting: the value for `O=C(C[C@H](Cc1ccccc1)C(=O)O)C[N+](=O)[O-]` was 31 µM.
On the same count and under the same terms, the result for `O=C(C[C@@H](Cc1ccccc1)C(=O)O)C[N+](=O)[O-]` reads 0.16 µM.
The same measure, in the same setting: the value for `O=C(O)C(CC(=O)C(F)(F)F)Cc1ccccc1` (racemic) was 0.2 µM.
With `O=C(CC(Cc1ccccc1)C(=O)O)C[N+](=O)[O-]` (racemic), the inhibitory constant (Ki) on Carboxypeptidase A1 turned out to be 0.43 µM.

One may read the Ki as a dissociation constant, usually derived from enzyme kinetics or from competition with a known ligand. Usually pKa stands for the negative logarithm of the acid dissociation constant.
